Test results reported in article PMC8838850, “Synthesis, Antimicrobial, Anti-Virulence and Anticancer Evaluation of New 5(4H)-Oxazolone-Based Sulfonamides” (Molecules, 2022).
Converted amounts (≈) assume the structure as drawn.

How the values were obtained:
[1] = system: Escherichia coli ATCC 10536; assay: MIC by agar dilution; assay type: cell-based; details: ATCC10536, 37 °C, 20 h, read-out: Minimum inhibitory concentration (MIC)
Procedure: (§1) The MICs of the synthesized compound were determined by agar dilution method according to the Clinical Laboratory and Standards Institute Guidelines (CLSI, 2015). Briefly, the tested strains were incubated overnight in tryptic soy broth (TSB) (Oxoid, United Kingdom) and then diluted in Muller–Hinton (MH) broth (Oxoid, United Kingdom) to turbidity approximating to the equivalent of 0.5 McFarland standard. The suspensions were further diluted with sterile saline (1:10) and standardized inoculums (approximately 10^4 CFU per spot) were spotted on the surfaces of MH agar (Oxoid, United Kingdom) plates containing different concentrations of tested compounds and a control plate. The MICs were the lowest concentrations that inhibit growth on the plates after incubation at 37 °C for 20 h.

[2] = system: Klebsiella pneumoniae ATCC 27736; assay: MIC by agar dilution; assay type: cell-based; details: ATCC27736, 37 °C, 20 h, read-out: Minimum inhibitory concentration (MIC)
Procedure: as §1

[3] = system: Micrococcus spp. ATCC 10240; assay: MIC by agar dilution; assay type: cell-based; details: ATCC10240, 37 °C, 20 h, read-out: Minimum inhibitory concentration (MIC)
Procedure: as §1

[4] = system: Salmonella typhimurium ATCC 14028; assay: MIC by agar dilution; assay type: cell-based; details: Salmonella enterica, 37 °C, 20 h, read-out: Minimum inhibitory concentration (MIC)
Procedure: as §1

[5] = system: Staphylococcus aureus ATCC 6538; assay: MIC by agar dilution; assay type: cell-based; details: ATCC6538, 37 °C, 20 h, read-out: Minimum inhibitory concentration (MIC)
Procedure: as §1

[6] = system: Staphylococcus epidermidis ATCC 12228; assay: MIC by agar dilution; assay type: cell-based; details: ATCC12228, 37 °C, 20 h, read-out: Minimum inhibitory concentration (MIC)
Procedure: as §1

[7] = system: Pseudomonas aeruginosae ATCC 47085; assay: MIC by agar dilution; assay type: cell-based, Pseudomonas aeruginosa; details: ATCC47085, 37 °C, 20 h, read-out: Minimum inhibitory concentration (MIC)
Procedure: as §1

[8] = system: Aspergillus niger ATCC 16404; assay: MIC by agar dilution (antifungal); assay type: cell-based; details: for MIC: ATCC16404, read-out: Minimum inhibitory concentration (MIC)
Procedure: as §1

[9] = system: Candida albicans ATCC 10231; assay: MIC by agar dilution (antifungal); assay type: cell-based; details: for MIC: Candida albicans, ATCC10231, Candida albicans ATCC 10231, read-out: Minimum inhibitory concentration (MIC)
Procedure: as §1

BxPC-3 = assay: SRB cellular proliferation assay; assay type: cell-based, human; details: Homo sapiens, BxPC-3 cells, mean ± SD (n = 3), read-out: IC50
Procedure: (§2) The pancreatic human cancer cell lines BxPC-3 and Panc-1, the human hepatocellular carcinoma (HepG-2), and the normal immortalized pancreatic cell line HPDE, that were used in this study, were obtained from the American Type Culture Collection (Rockville, USA). Cell lines were cultured and treated with the tested compounds or dimethyl sulfoxide (DMSO) as previously described. Cells were cultivated in DMEM medium (Invitrogen, Carlsbad, CA, USA), supplemented with streptomycin, penicillin and fetal bovine serum (FCS) (Invitrogen, Carlsbad, CA, USA). The sulforhodamine B (SRB) assay was employed to assess the anti-proliferative effects of tested compounds on cancer cells. Cell lines were incubated and regularly treated with DMSO or increasing doses of tested compounds for 48 h. The cells were fixed with 10% trichloroacetic acid and stained with SRB fluorescent dye for 30 min. Then, the bounded SRB dye to cellular proteins was dissolved in 10 mM Tris base after washing excess dye with 1% acetic acid. The absorbance was measured at 510 nm in a reader (Biotek, Winooski, VT, USA).

HepG-2 = assay: SRB cellular proliferation assay; assay type: cell-based, human; details: Homo sapiens, HepG2, HepG-2 cells, mean ± SD (n = 3), read-out: IC50
Procedure: as §2

Panc-1 = assay: SRB cellular proliferation assay; assay type: cell-based, human; details: Homo sapiens, Panc-1 cells, mean ± SD (n = 3), read-out: IC50
Procedure: as §2

Structure (SMILES)	MIC [1] [µg/mL]	MIC [2] [µg/mL]	MIC [3] [µg/mL]	MIC [4] [µg/mL]	MIC [5] [µg/mL]	MIC [6] [µg/mL]	MIC [7] [µg/mL]	MIC [8] [µg/mL]	MIC [9] [µg/mL]	IC50 (BxPC-3) [µg/mL]	IC50 (HepG-2) [µg/mL]	IC50 (Panc-1) [µg/mL]	melting point [°C]	Minimum inhibitory concentration (MIC) [8] [µg/mL]	Minimum inhibitory concentration (MIC) ([9]; Candida albicans ATCC 10231) [µg/mL]
Cc1ccc(S(=O)(=O)Nc2ccccc2C2=N/C(=C/c3cccs3)C(=O)O2)cc1 [Compound 9j, (E)-4-Methyl-N-(2-(5-oxo-4-(thiophen-2-ylmethylene)-4,5-dihydrooxazol-2-yl)phenyl)benzenesulfonamide]	> 32	> 32	8 (≈ 18.8 µM)	> 32	16 (≈ 37.7 µM)	8 (≈ 18.8 µM)	> 32	> 32	> 32	21.4 ± 2.15 (≈ 50.5 µM)	25.54 ± 0.144 (≈ 60.2 µM)	16 ± 3.18 (≈ 37.8 µM)	196 to 198		
COc1cccc2c1C(=O)c1c(O)c3c(c(O)c1C2=O)C[C@@](O)(C(=O)CO)C[C@@H]3O[C@H]1C[C@H](N)[C@H](O)[C@H](C)O1 [Doxorubicin, reference compound]										7.31 ± 1.12 (≈ 13.4 µM)	5.11 ± 0.98 (≈ 9.4 µM)	6.9 ± 0.93 (≈ 12.7 µM)			
CO/N=C(\C(=O)N[C@@H]1C(=O)N2C(C(=O)O)=C(COC(C)=O)CS[C@H]12)c1csc(N)n1 [Cefotaxime, reference compound]	0.125 (≈ 0.274 µM)	0.5 (≈ 1.1 µM)	0.25 (≈ 0.549 µM)	1 (≈ 2.2 µM)	0.5 (≈ 1.1 µM)	0.25 (≈ 0.549 µM)	1 (≈ 2.2 µM)								
Cc1ccc(S(=O)(=O)Nc2ccccc2C2=N/C(=C/c3ccco3)C(=O)O2)cc1 [Compound 9i, (E)-N-(2-(4-(Furan-2-ylmethylene)-5-oxo-4,5-dihydrooxazol-2-yl)phenyl)-4-methylbenzenesulfonamide]	> 32	> 32	2 (≈ 4.9 µM)	> 32	2 (≈ 4.9 µM)	2 (≈ 4.9 µM)	> 32	> 32	> 32	21.8 ± 2.98 (≈ 53.4 µM)	27 ± 5.32 (≈ 66.1 µM)	16.1 ± 1.82 (≈ 39.5 µM)	191 to 193		
C[C@@H]1[C@H](O)[C@@H](C)/C=C/C=C/CC/C=C/C=C/C=C/C=C/C(O[C@H]2O[C@H](C)[C@@H](O)[C@H](N)[C@@H]2O)CC2O[C@](O)(CC(O)C(O)CCC(O)CC(O)CC(O)CC(=O)O[C@H]1C)CC(O)C2C(=O)O (stereo partly shown) [Nystatin, reference compound]														4 (≈ 4.32 µM)	4 (≈ 4.32 µM)
COc1cc(/C=C2/N=C(c3ccccc3NS(=O)(=O)c3ccc(C)cc3)OC2=O)cc(OC)c1OC [Compound 9d, (E)-4-Methyl-N-(2-(5-oxo-4-(3,4,5-trimethoxybenzylidene)-4,5-dihydrooxazol-2-yl)phenyl)be-nzenesulfonamide]	4 (≈ 7.87 µM)	16 (≈ 31.5 µM)	2 (≈ 3.93 µM)	16 (≈ 31.5 µM)	4 (≈ 7.87 µM)	2 (≈ 3.93 µM)	32 (≈ 62.9 µM)	> 32	> 32	18.1 ± 3.56 (≈ 35.5 µM)	22.7 ± 2.3 (≈ 44.7 µM)	25.3 ± 1.91 (≈ 49.8 µM)	230 to 232		
CC1(C)S[C@@H]2[C@H](NC(=O)[C@H](N)c3ccc(O)cc3)C(=O)N2[C@H]1C(=O)O [Amoxycillin, reference compound]	0.5 (≈ 1.37 µM)	1 (≈ 2.74 µM)	0.25 (≈ 0.684 µM)	1 (≈ 2.74 µM)	0.5 (≈ 1.37 µM)	0.5 (≈ 1.37 µM)	2 (≈ 5.47 µM)								
Cc1ccc(S(=O)(=O)Nc2ccccc2C2=N/C(=C/c3ccc(OCc4ccccc4)cc3)C(=O)O2)cc1 [Compound 9g, (E)-N-(2-(4-(4-(Benzyloxy)benzylidene)-5-oxo-4,5-dihydrooxazol-2-yl)phenyl)-4-methylbenzenesulfonamide]	2 (≈ 3.81 µM)	8 (≈ 15.2 µM)	2 (≈ 3.81 µM)	16 (≈ 30.5 µM)	2 (≈ 3.81 µM)	2 (≈ 3.81 µM)	16 (≈ 30.5 µM)	> 32	> 32	25.7 ± 4.89 (≈ 49 µM)	32.5 ± 1.45 (≈ 62 µM)	29.3 ± 4.23 (≈ 55.8 µM)	235 to 237		
COc1ccc(OC)c(/C=C2/N=C(c3ccccc3NS(=O)(=O)c3ccc(C)cc3)OC2=O)c1 [Compound 9c, (E)-N-(2-(4-(2,5-diMethoxybenzylidene)-5-oxo-4,5-dihydrooxazol-2-yl)phenyl)-4-methylbenzenesulfonamide]	4 (≈ 8.36 µM)	8 (≈ 16.7 µM)	4 (≈ 8.36 µM)	8 (≈ 16.7 µM)	8 (≈ 16.7 µM)	4 (≈ 8.36 µM)	16 (≈ 33.4 µM)	8 (≈ 16.7 µM)	4 (≈ 8.36 µM)	21.5 ± 1.08 (≈ 44.9 µM)	19.1 ± 3.23 (≈ 39.9 µM)	15.1 ± 4.13 (≈ 31.6 µM)	220 to 222		
Cc1cc(NS(=O)(=O)c2ccc(N)cc2)no1 [Sulphamethoxazole, reference compound]	1 (≈ 3.95 µM)	2 (≈ 7.9 µM)	1 (≈ 3.95 µM)	2 (≈ 7.9 µM)	2 (≈ 7.9 µM)	2 (≈ 7.9 µM)	4 (≈ 15.8 µM)								
